Experimental data reported in ChEMBL document CHEMBL2417422, “Modulation of human neutrophils' oxidative burst by flavonoids” (Eur J Med Chem, 2013).
Activity calls are given as the source filed them. The calls are words filed in the database; no cut-off is given here.

How the values were obtained:
Neutrophil [1] = test: Inhibition of oxidative burst in PMA-stimulated human neutrophils assessed as inhibition of H2O2-induced oxidation of amplex red up to 100 uM incubated for 5 mins prior to PMA challenge by fluorescence assay; format: functional
Neutrophil [2] = test: Inhibition of oxidative burst in PMA-stimulated human neutrophils assessed as inhibition of H2O2-induced oxidation of amplex red at 40 uM incubated for 5 mins prior to PMA challenge by fluorescence assay; format: functional
Neutrophil [3] = test: Inhibition of oxidative burst in PMA-stimulated human neutrophils assessed as inhibition of superoxide anion radical-induced lucigenin oxidation incubated for 5 mins prior to PMA challenge by chemiluminescence assay; format: functional, cell-based
Neutrophil [4] = test: Inhibition of oxidative burst in PMA-stimulated human neutrophils assessed as inhibition of ROS-induced luminol oxidation incubated for 5 mins prior to PMA challenge by chemiluminescence assay; format: functional, cell-based
[5] = Cytotoxicity against human neutrophils assessed as cell viability at 100 uM after 1 hr by trypan blue exclusion assay; format: cell-based, Neutrophil; settings: read-out: Activity
Neutrophil [6] = test: Inhibition of oxidative burst in PMA-stimulated human neutrophils assessed as inhibition of HOCl-induced oxidation of APF after 6 mins by fluorescence assay; format: functional, cell-based; settings: 0.1 h
Neutrophil [7] = test: Inhibition of oxidative burst in PMA-stimulated human neutrophils assessed as inhibition of H2O2-induced oxidation of amplex red incubated for 5 mins prior to PMA challenge by fluorescence assay; format: functional, cell-based
Neutrophil [8] = test: Inhibition of oxidative burst in PMA-stimulated human neutrophils assessed as inhibition of ROS-induced luminol oxidation up to 100 uM incubated for 5 mins prior to PMA challenge by chemiluminescence assay; format: functional
Neutrophil [9] = test: Inhibition of oxidative burst in PMA-stimulated human neutrophils assessed as inhibition of superoxide anion radical-induced lucigenin oxidation up to 100 uM incubated for 5 mins prior to PMA challenge by chemiluminescence assay; format: functional
[10] = target: T1, Myeloperoxidase (Homo sapiens) (UniProt P05164); test: Inhibition of MPO (unknown origin); settings: concentration not given here
T1 sequence (whole entry): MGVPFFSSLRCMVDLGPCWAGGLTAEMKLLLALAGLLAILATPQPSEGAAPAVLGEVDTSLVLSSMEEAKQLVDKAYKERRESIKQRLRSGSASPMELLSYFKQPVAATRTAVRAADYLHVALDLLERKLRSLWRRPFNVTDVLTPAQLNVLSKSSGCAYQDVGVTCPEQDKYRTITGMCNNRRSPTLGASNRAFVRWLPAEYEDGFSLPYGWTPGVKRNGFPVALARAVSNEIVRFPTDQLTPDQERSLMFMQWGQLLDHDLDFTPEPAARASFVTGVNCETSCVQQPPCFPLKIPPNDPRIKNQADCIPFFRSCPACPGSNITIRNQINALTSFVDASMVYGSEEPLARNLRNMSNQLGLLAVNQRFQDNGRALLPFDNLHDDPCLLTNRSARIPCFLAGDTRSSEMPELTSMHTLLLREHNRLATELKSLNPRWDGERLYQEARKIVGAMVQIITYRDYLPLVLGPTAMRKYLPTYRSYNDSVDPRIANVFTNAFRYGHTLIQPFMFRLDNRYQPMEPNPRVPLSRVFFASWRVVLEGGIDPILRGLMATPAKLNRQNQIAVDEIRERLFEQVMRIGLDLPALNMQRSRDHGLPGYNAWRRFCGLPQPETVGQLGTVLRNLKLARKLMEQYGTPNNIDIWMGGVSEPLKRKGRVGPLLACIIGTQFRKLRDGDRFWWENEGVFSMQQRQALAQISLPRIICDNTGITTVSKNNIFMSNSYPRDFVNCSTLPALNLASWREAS

Neutrophil [11] = test: Inhibition of oxidative burst in PMA-stimulated human neutrophils assessed as inhibition of ROS-induced luminol oxidation at 25 uM incubated for 5 mins prior to PMA challenge by chemiluminescence assay; format: functional
Neutrophil [12] = test: Inhibition of oxidative burst in PMA-stimulated human neutrophils assessed as inhibition of HOCl-induced oxidation of APF up to 100 uM after 6 mins by fluorescence assay; format: functional, cell-based

| Structure (SMILES) | inhibition (INH) (Neutrophil [1]) | inhibition at 40 µM (Neutrophil [2]) | IC50 (Neutrophil [3]) | IC50 (Neutrophil [4]) | viability at 1 h, 100 µM [5] | IC50 (Neutrophil [6]) | IC50 (Neutrophil [7]) | inhibition (INH) (Neutrophil [8]) | inhibition (Neutrophil [7]) | inhibition (INH) (Neutrophil [9]) | inhibition [10] | inhibition at 25 µM (Neutrophil [11]) | inhibition (Neutrophil [12]) |
| --- | --- | --- | --- | --- | --- | --- | --- | --- | --- | --- | --- | --- | --- |
| O=c1cc(-c2cccc(O)c2)oc2ccccc12 | <40% | 17% | 47 µM | 24 µM | > 98% |  |  |  |  |  |  |  |  |
| NNC(=O)c1ccc(N)cc1 |  |  |  | 43.6 µM |  | 30.6 µM |  |  |  |  |  |  |  |
| O=c1cc(-c2ccc(O)c(O)c2)oc2ccccc12 |  |  | 8.1 µM | 3 µM | > 98% | 0.9 µM | 3.2 µM |  |  |  |  |  |  |
| O=c1cc(-c2ccc(O)c(O)c2)oc2cccc(O)c12 |  |  | 4.9 µM | 1.6 µM | > 98% | 0.39 µM | 3.2 µM |  |  |  |  |  |  |
| O=c1cc(-c2cccc(O)c2)oc2cc(O)ccc12 |  |  | 34.8 µM | 37.4 µM | > 98% |  | 79.6 µM |  |  |  |  |  |  |
| O=c1cc(-c2ccc(O)cc2)oc2cc(O)ccc12 | <40% |  | 26.9 µM |  | > 98% |  |  | <40% |  |  |  |  |  |
| O=c1cc(-c2ccc(O)c(O)c2)oc2cc(O)ccc12 |  |  | 14.7 µM | 13.5 µM | > 98% | 5.2 µM | 3.7 µM |  |  |  |  |  |  |
| O=c1cc(-c2ccc(O)cc2)oc2ccccc12 |  |  |  | 40.3 µM | > 98% |  |  |  | inactive | <40% |  |  |  |
| O=c1cc(-c2cccc(O)c2)oc2cc(O)cc(O)c12 | <40% |  | 15.8 µM | 10 µM | > 98% | 65.4 µM |  |  |  |  |  |  |  |
| O=c1cc(-c2ccc(O)cc2)oc2cccc(O)c12 | <40% | 20% | 67.8 µM | 18 µM | > 98% |  |  |  |  |  |  |  |  |
| O=c1cc(-c2cccc(O)c2)oc2cccc(O)c12 | <40% | 20% | 32 µM | 14.5 µM | > 98% |  |  |  |  |  |  |  |  |
| COc1ccc(-c2cc(=O)c3c(O)cc(O)cc3o2)cc1OC | <40% |  | 16 µM | 57.6 µM | > 98% | 3.33 µM |  |  |  |  |  |  |  |
| O=C1CC(c2ccc(O)c(O)c2)Oc2cc(O)cc(O)c21 (racemic) |  |  | 15.5 µM | 18 µM | > 98% | 1.4 µM | 4 µM |  |  |  | 40% |  |  |
| O=C1CC(c2ccc(O)cc2)Oc2cc(O)cc(O)c21 (racemic) | <40% |  | 31 µM | 51.4 µM | > 98% |  |  |  |  |  |  |  |  |
| O=c1cc(-c2ccccc2)oc2cccc(O)c12 [5-HYDROXYFLAVONE] |  |  | 96 µM |  | > 98% |  |  | <40% | inactive |  |  | 30.1% |  |
| O=c1cc(-c2ccccc2)oc2cc(O)ccc12 [7-HYDROXYFLAVONE] | <40% |  | 33 µM |  | > 98% |  |  | <40% |  |  |  |  |  |
| O=C1c2c(O)cc(O)cc2O[C@H](c2ccc(O)c(O)c2)[C@H]1O [(+)-TAXIFOLIN] |  |  | 15.5 µM | 53.5 µM | > 98% | 15.3 µM | 41.3 µM |  |  |  | 40% |  |  |
| COc1ccc(-c2cc(=O)c3c(O)cc(O)cc3o2)cc1 [ACACETIN] |  |  | 7 µM |  | > 98% |  |  | <40% | inactive |  |  | 26.7% | inactive |
| O=c1cc(-c2ccc(O)cc2)oc2cc(O)cc(O)c12 [APIGENIN] |  |  | 7.7 µM | 24 µM | > 98% | 12.3 µM | 16.2 µM |  |  |  |  |  |  |
| O=c1cc(-c2ccccc2)oc2cc(O)cc(O)c12 [CHRYSIN] |  |  | 9.59 µM | 53 µM | > 98% |  |  |  | inactive |  |  |  | inactive |
| COc1cc(-c2cc(=O)c3c(O)cc(O)cc3o2)ccc1O [CHRYSOERIOL] |  |  | 7.1 µM | 2.8 µM |  | 0.4 µM | 8.6 µM |  |  |  |  |  |  |
| COc1ccc(-c2cc(=O)c3c(O)cc(O)cc3o2)cc1O [DIOSMETIN] |  |  | 15 µM | 3.6 µM |  | 0.7 µM | 10.3 µM |  |  |  |  |  |  |
| O=c1cc(-c2ccccc2)oc2ccccc12 [FLAVONE] |  |  | 57 µM |  | > 98% | 64.9 µM |  | <40% | inactive |  |  |  |  |
| O=c1cc(-c2ccc(O)c(O)c2)oc2cc(O)cc(O)c12 [LUTEOLIN] |  |  | 9.5 µM | 9.3 µM | > 98% | 0.9 µM | 4 µM |  |  |  |  |  |  |
| O=c1c(O)c(-c2ccc(O)c(O)c2)oc2cc(O)cc(O)c12 [QUERCETIN] |  |  | 11.3 µM | 26 µM | > 98% | 0.7 µM | 8 µM |  |  |  |  |  |  |
